Molecules are shown by their SMILES.

For the assay, the target named is GTPase HRas [G12V] (Homo sapiens, UniProt P01112, G12V). Briefly: In Vitro Ras-Raf Binding Inhibitory Activity Assay. How it is done: The in vitro Ras-Raf binding inhibitory activity of the compound of the present invention was evaluated by an ELISA method described below. GST-c-Raf-1 RBD diluted with a Ras-Raf binding buffer (50 mM Tris-HCl pH7.4, 150 mM NaCl, 5 mM MgCl2, 1 mM EDTA, and 1% Triton-X100) was added to each well of a glutathione-coated 96-well plate (Thermo Fisher Scientific.), and was incubated at 30° C. for 1 hour, to immobilize Raf on the well. The unbound free Raf was eliminated by washing the well with the Ras-Raf binding buffer three times. Subsequently, GTPTS-bound HRasG12V diluted with the Ras-Raf binding buffer and each compound solution (final DMSO concentration: 10%) were applied to each well, and the resulting mixture was then incubated at 30° C. for 1 hour, so that Ras and Raf were allowed to bind to each other. Thereafter, the plate was washed with the Ras-Raf binding buffer twice, and was then subjected to a blocking treatment at room temperature for 20 minutes, using TBS-Tween {10 mM Tris-HCl pH 7.4, 150 mM NaCl, and 0.05% (w/v) Tween-20}-5% (w/v) bovine serum albumin (BSA). After that, an anti-HRas antibody (C-20, Santa Cruz) or an anti-HRas antibody (259, Santa Cruz), which had been 1000 times diluted with TBS-Tween-5% BSA, was added to the reaction mixture, and incubated at room temperature for 1 hours. After the treatment with the primary antibody, the plate was washed with TBS-Tween-5% BSA three times, and a horseradish peroxidase-labeled secondary antibody against rabbit immunoglobulin G (GE Healthcare) of 1000 times diluted with TBS-Tween-5% BSA, was added to the plate, followed by incubation at room temperature for 1 hour. After the treatment with the secondary antibody, the plate was washed with TBS-Tween-5% BSA three times, and a substrate solution (TMB) was then added to the plate, followed by incubation at room temperature for 15 minutes for coloration. Finally, 2 M H2SO4 was added to stop color development (coloration reaction kit: Nacalai Tesque).
GTPase HRas [G12V], sequence (P01112 whole entry G12V, looked up): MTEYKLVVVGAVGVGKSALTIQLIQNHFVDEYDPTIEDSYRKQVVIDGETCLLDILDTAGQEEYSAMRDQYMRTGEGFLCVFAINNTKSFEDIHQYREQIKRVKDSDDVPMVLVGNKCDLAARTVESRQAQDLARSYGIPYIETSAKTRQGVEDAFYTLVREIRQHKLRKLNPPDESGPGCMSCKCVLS
Turning to `CC(=O)N1/C(=C/c2nc3ccc(/C=C/C(=O)N4CCOCC4)cc3s2)C(=O)c2ccccc21` [US20250091994, Example 108], the IC50 came out at 2.6 µM. In turn, `CC(=O)N1/C(=C\c2cc(-c3ccccc3-c3ccccc3)c3cc(C(=O)N4CCC(C(=O)O)CC4)ccc3n2)C(=O)c2ccccc21` [US20250091994, Example 142] yielded an IC50 of 0.8 µM.

Regarding `CC(=O)N1CCc2cc(-c3cc(/C=C4/C(=O)c5ccccc5N4C(C)=O)nc4ccccc34)ccc2C1` [US20250091994, Example 187], the half-inhibitory concentration (IC50) worked out at 0.5 µM. Next, `COc1cc(/C=C2/C(=O)c3ccccc3N2C(C)=O)ccc1OCC(=O)Nc1ccccc1` [US20250091994, Example 15]: 7.3 µM; `COc1cc(/C=C2/C(=O)c3ccccc3N2C(C)=O)ccc1OCS(C)(=O)=O` [US20250091994, Example 24]: 2.1 µM.

For the compound `COc1cc(C=C2C(=O)c3cccc(F)c3N2C(C)=O)ccc1OCC(=O)N1CCOCC1` [US20250091994, Example 105], the IC50 turned out to be 20 µM.

`CC(=O)N1/C(=C\c2cc(C(N)=O)c3cc(C(=O)N4CCOCC4)ccc3n2)C(=O)c2ccccc21` [US20250091994, Example 111] gave an IC50 of 1 µM.

The compound `CC(=O)N1CCN(c2cc(/C=C3/C(=O)c4ccccc4N3C(C)=O)nc3ccc(C(=O)N4CCOCC4)cc23)CC1` [US20250091994, Example 90] registered an IC50 of 1.4 µM. Next, `CC(=O)N1C(=Cc2ccc3cc(C(=O)N4CCOCC4)ccc3c2)C(=O)c2ccccc21` [US20250091994, Example 66]: 2.3 µM. In turn, `COc1cc(/C=C2/C(=O)c3ccccc3N2C(C)=O)ccc1OCC(N)=O` [US20250091994, Example 1] had an IC50 of 6.9 µM. In the case of `CC(=O)N1/C(=C/c2nc3ccc(C(=O)N4CC(C)OC(C)C4)cc3s2)C(=O)c2ccccc21` (stereo not given) [US20250091994, Example 101], the IC50 amounted to 0.78 µM. Compared with the last compound, the IC50 is about 8.8-fold lower. `CC(=O)N1/C(=C\c2ccc3cc(C(=O)O)ccc3n2)C(=O)c2ccccc21` [US20250091994, Example 127] gave a concentration for half-maximal inhibition (IC50) of 2.1 µM. In the case of `CC(=O)N1CCc2cc(-c3cc(/C=C4/C(=O)c5ccccc5N4C(C)=O)nc4ccc(CNC5CCOCC5)cc34)ccc2C1` [US20250091994, Example 209] it was 0.4 µM; in that of `CC(=O)N1/C(=C\c2cc(Cl)c3cc(C(=O)N4CCOCC4)ccc3n2)C(=O)c2ccccc21` [US20250091994, Example 82], 0.61 µM. Next, `COc1cc(/C=C2/C(=O)c3cc(F)ccc3N2C(C)=O)ccc1OCC(=O)N1CCOCC1` [US20250091994, Example 50]: 12 µM; `CC(=O)N1/C(=C\c2cc(-c3cccc(-c4cnn(C)c4)c3)c3cc(C(=O)N4CCOCC4)ccc3n2)C(=O)c2ccccc21` [US20250091994, Example 149]: 0.3 µM. `CCOC(=O)N1C(=Cc2ccc(OCC(=O)N3CCOCC3)c(OC)c2)C(=O)c2ccccc21` [US20250091994, Example 123] came in with an IC50 of 8.5 µM. In the case of `CC(=O)N1/C(=C/c2cc(-c3cccc4[nH]ncc34)c3cc(C(=O)N4CCOCC4)ccc3n2)C(=O)c2ccccc21` [US20250091994, Example 145] it was 0.6 µM. Compound `CC(=O)N1/C(=C/c2nc3cc(/C=C/C(=O)N4CCOCC4)ccc3s2)C(=O)c2ccccc21` [US20250091994, Example 110] had an IC50 of 0.42 µM. As for `COc1cc(/C=C2/C(=O)c3ccccc3N2C(C)=O)ccc1CCC(N)=O` [US20250091994, Example 31], the IC50 is 13 µM. Regarding `CC(=O)N1C(=Cc2cc(CN3CCOCC3=O)c3ccccc3n2)C(=O)c2ccccc21` [US20250091994, Example 183], the IC50 was determined as 1.4 µM. This IC50 lies about 9.3-fold lower than the previous one. Next, `CC(=O)N1/C(=C\c2cc(-c3ccncc3)c3cc(C(=O)N4CCOCC4)ccc3n2)C(=O)c2ccccc21` [US20250091994, Example 184]: 0.9 µM; `COC1(CN2CCN(C(=O)c3ccc4nc(/C=C5/C(=O)c6ccccc6N5C(C)=O)ccc4c3)CC2)COC1` [US20250091994, Example 119]: 2.9 µM; `CC(=O)N1/C(=C\c2cc(-c3ncccn3)c3cc(C(=O)N4CCOCC4)ccc3n2)C(=O)c2ccccc21` [US20250091994, Example 189]: 1.5 µM. In the case of `CC(=O)N1CCc2cc(-c3cc(/C=C4/C(=O)c5ccccc5N4C(C)=O)nc4ccc(C(=O)N5CCOCC5)cc34)ccc2C1` [US20250091994, Example 144], the concentration for half-maximal inhibition (IC50) was determined as 0.8 µM.

`CC(=O)N1/C(=C\c2cc(-c3ccccc3-c3ccccc3)c3cc(C(=O)N4CCN(C)CC4)ccc3n2)C(=O)c2ccccc21` [US20250091994, Example 140]: the concentration for half-maximal inhibition (IC50) is 1.3 µM. In the case of `CC(=O)N1C(=Cc2cc(-c3cccnc3-c3ccccc3)c3cc(C(=O)N4CCOCC4)ccc3n2)C(=O)c2ccccc21` [US20250091994, Example 94] it was 0.66 µM; in that of `COc1cc(/C=C2/C(=O)c3cccnc3N2C(C)=O)ccc1OCC(=O)N1CCOCC1` [US20250091994, Example 51], 2.1 µM; in that of `CC(=O)N1/C(=C\c2ccc3cc(CN(C4CCOCC4)S(C)(=O)=O)ccc3n2)C(=O)c2ccccc21` [US20250091994, Example 76], 1.6 µM. With `CC(=O)N1CCc2ccc(-c3cc(/C=C4/C(=O)c5ccccc5N4C(C)=O)nc4ccc(CNC5CCOCC5)cc34)cc2C1` [US20250091994, Example 211], the half-maximal inhibitory concentration (IC50) was 0.6 µM.

`CC(=O)N1/C(=C\c2ccc3cc(CN(C(C)=O)C4CCOCC4)ccc3n2)C(=O)c2ccccc21` [US20250091994, Example 75] had a concentration for half-maximal inhibition (IC50) of 2.1 µM. For `CC(=O)N1/C(=C/c2nc3ccc(CNC4CCOCC4)cc3s2)C(=O)c2ccccc21` [US20250091994, Example 135], the IC50 was found to be 0.79 µM. Against the preceding compound, the IC50 is about 2.7-fold lower. Next, `COCC(O)CN1CCN(C(=O)c2ccc3nc(/C=C4/C(=O)c5ccccc5N4C(C)=O)cc(-c4ccccc4-c4ccccc4)c3c2)CC1` (stereo not given) [US20250091994, Example 96]: 0.35 µM. Turning to `CC(=O)N1/C(=C/c2nc3ccc(/C=C/S(=O)(=O)N4CCOCC4)cc3s2)C(=O)c2ccccc21` [US20250091994, Example 43], the 50% inhibitory concentration (IC50) is 7.1 µM.

In turn, `CC(=O)N1C(=Cc2ccc3cc(CNS(C)(=O)=O)ccc3n2)C(=O)c2ccccc21` [US20250091994, Example 64] yielded an IC50 of 1.1 µM. Next, `CC(=O)N1C(=Cc2ccc(C(=O)N3CCOCC3)cc2)C(=O)c2ccccc21` [US20250091994, Example 67]: 5.6 µM; `CCn1cc(-c2cc(/C=C3/C(=O)c4ccccc4N3C(C)=O)nc3ccc(C(=O)N4CCOCC4)cc23)cn1` [US20250091994, Example 178]: 0.8 µM; `CC(=O)N1/C(=C\c2ccc3cc(C(=O)N4CCC(C(=O)O)CC4)ccc3n2)C(=O)c2ccccc21` [US20250091994, Example 129]: 1.5 µM. Consider `CC(=O)NCc1ccc2nc(/C=C3/C(=O)c4ccccc4N3C(C)=O)ccc2c1` [US20250091994, Example 63], for which the 50% inhibitory concentration (IC50) worked out at 2 µM. As to `CC(=O)N1/C(=C\c2cc(N3CCC(C#N)CC3)c3cc(C(=O)N4CCOCC4)ccc3n2)C(=O)c2ccccc21` [US20250091994, Example 87], the IC50 is 2.1 µM. As for `CC(=O)N1/C(=C\c2ccc3cc(C(=O)N4CCN(C5COC5)CC4)ccc3n2)C(=O)c2ccccc21` [US20250091994, Example 41], the IC50 was 4.7 µM. Next, `CC(=O)N1/C(=C/c2nc(C(=O)N3CCOCC3)cs2)C(=O)c2ccccc21` [US20250091994, Example 55]: 6.4 µM.

For the compound `CC(=O)N1C(=Cc2ccc(OCC(N)=O)c(Cl)c2)C(=O)c2ccccc21` [US20250091994, Example 17], the IC50 worked out at 9.6 µM. In the case of `COc1cc(/C=C2/C(=O)c3ccccc3N2C(C)=O)ccc1OS(C)(=O)=O` [US20250091994, Example 21] it was 7.2 µM; in that of `COCCN1CCN(C(=O)c2ccc3nc(/C=C4/C(=O)c5ccccc5N4C(C)=O)ccc3c2)CC1` [US20250091994, Example 116], 8.4 µM. In the case of `CC(=O)N1C(=Cc2cc(-c3cccc4ccccc34)c3cc(C(=O)N4CCOCC4)ccc3n2)C(=O)c2ccccc21` [US20250091994, Example 118], the concentration for half-maximal inhibition (IC50) is 0.73 µM. For `CC(=O)N1/C(=C\c2ccc3cc(CNC(=O)CN4CCOCC4)ccc3n2)C(=O)c2ccccc21` [US20250091994, Example 80], the concentration for half-maximal inhibition (IC50) was determined as 0.9 µM. In the case of `CC(=O)N1/C(=C\c2nc(-c3cnn(C)c3)c3ccccc3n2)C(=O)c2ccccc21` [US20250091994, Example 203] it was 0.6 µM; in that of `COc1cc(C=C2C(=O)c3ccc(F)cc3N2C(C)=O)ccc1OCC(=O)N1CCOCC1` [US20250091994, Example 103], 10 µM. In the case of `CC(=O)N1/C(=C\c2cc(On3nnc4cccnc43)c3cc(C(=O)N4CCOCC4)ccc3n2)C(=O)c2ccccc21` [US20250091994, Example 112] it was 0.55 µM.

In general, IC50 refers to the concentration needed to halve the response being measured. High values mean weaker potency, low ones greater potency.

For the origin of these results see BindingDB's records for patent US20250091994 (Kobe University, 2025).
